The supplement of paper PMC12463676, “Small-molecule dissolution of stress granules by redox modulation benefits ALS models” (Nature Chemical Biology, 2025)

How the values were obtained:
lipoamide = compound: NC(=O)CCCCC1CCSS1 [lipoamide]; test: thermal stability z-score vs DMSO; higher = more thermally stabilized by treatment; conditions: HeLa, lipoamide concentration 100 µM
Protocol: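 Cellular thermal proteome profiling in HeLa cells. Cells were treated with 100 µM lipoamide for 1 h, with or without 1 mM arsenate for a further 1 h, then heated to ten temperatures (37-66.3 °C), and soluble protein was quantified by TMT mass spectrometry relative to 0.1% DMSO controls. The thermal stability score (sum of log2 fold changes minus the abundance score) was transformed to a z-score; mean of n = 3 experiments.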

potassium arsenate = compound: O=[As]([O-])(O)O.[K+] [potassium arsenate]; test: as above; conditions: HeLa; arsenate concentration 1 mM
Protocol: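 Cellular thermal proteome profiling in HeLa cells treated with 1 mM arsenate for 1 h (DMSO pretreatment), heated to ten temperatures (37-66.3 °C). Soluble protein was quantified by TMT mass spectrometry relative to DMSO controls; the thermal stability score was transformed to a z-score; mean of n = 3 experiments.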

[1] = arsenate co-treatment: 1 mM arsenate 1 h
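Note: each temperature applied for 3 min, abundance score taken as mean log2 fold change at the two lowest temperatures, z-score obtained by mean subtraction and division by SD.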

Sequence of UniProt Q04446 (Q04446 whole entry): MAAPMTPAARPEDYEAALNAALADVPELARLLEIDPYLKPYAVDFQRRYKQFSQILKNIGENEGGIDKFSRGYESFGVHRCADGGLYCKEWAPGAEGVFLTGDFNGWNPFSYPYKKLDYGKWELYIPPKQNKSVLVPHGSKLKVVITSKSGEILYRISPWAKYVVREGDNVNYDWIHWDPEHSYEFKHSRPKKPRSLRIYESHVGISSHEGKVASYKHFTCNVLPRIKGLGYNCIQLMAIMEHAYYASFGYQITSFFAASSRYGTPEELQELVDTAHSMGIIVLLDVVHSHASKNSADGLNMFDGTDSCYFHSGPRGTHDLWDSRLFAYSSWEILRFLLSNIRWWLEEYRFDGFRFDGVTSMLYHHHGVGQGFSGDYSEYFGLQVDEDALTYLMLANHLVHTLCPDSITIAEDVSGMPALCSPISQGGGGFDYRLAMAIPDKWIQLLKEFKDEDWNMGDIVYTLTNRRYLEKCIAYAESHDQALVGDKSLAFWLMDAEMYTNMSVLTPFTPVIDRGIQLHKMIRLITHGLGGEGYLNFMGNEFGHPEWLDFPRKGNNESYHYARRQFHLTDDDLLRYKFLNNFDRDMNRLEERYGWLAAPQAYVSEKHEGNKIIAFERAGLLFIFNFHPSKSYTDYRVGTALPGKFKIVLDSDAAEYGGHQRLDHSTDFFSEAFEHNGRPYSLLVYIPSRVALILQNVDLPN
Sequence of UniProt A6ND36 (A6ND36 whole entry): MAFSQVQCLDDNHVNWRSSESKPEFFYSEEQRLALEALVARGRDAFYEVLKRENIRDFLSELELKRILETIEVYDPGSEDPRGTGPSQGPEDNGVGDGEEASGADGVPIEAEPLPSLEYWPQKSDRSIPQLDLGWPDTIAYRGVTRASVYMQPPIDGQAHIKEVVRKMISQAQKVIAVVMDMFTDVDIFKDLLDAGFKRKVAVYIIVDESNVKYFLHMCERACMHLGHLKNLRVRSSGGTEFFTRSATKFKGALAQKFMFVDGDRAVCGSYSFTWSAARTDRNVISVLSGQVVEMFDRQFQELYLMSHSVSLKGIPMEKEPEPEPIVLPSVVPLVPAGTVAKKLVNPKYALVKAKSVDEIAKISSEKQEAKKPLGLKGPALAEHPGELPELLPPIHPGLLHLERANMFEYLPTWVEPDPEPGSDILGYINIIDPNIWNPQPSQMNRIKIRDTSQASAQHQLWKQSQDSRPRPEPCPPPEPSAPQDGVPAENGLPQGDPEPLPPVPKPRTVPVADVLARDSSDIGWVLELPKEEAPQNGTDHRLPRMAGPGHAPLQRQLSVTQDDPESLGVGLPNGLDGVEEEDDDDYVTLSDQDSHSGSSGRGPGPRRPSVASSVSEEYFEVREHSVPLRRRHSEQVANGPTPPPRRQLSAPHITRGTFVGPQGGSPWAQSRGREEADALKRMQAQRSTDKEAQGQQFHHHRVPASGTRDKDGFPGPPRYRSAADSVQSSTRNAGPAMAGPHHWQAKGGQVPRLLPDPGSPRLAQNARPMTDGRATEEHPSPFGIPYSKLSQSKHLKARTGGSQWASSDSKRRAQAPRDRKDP
Sequence of UniProt Q9Y624 (Q9Y624 whole entry, looked up, stated change not applied): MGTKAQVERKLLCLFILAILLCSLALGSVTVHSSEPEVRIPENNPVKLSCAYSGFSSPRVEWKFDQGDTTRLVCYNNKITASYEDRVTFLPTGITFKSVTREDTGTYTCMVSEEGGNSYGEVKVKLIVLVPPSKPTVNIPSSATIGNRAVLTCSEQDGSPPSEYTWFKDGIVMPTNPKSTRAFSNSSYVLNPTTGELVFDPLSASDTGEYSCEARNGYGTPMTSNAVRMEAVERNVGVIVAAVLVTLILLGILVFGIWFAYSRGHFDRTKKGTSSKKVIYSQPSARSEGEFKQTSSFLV
Sequence of UniProt Q56VL3 (Q56VL3 whole entry): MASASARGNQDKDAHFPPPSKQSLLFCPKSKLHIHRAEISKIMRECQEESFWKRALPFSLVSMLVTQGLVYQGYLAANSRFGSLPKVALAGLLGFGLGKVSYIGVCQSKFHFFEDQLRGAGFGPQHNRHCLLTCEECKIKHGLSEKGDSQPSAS
Sequence of UniProt Q93052 (Q93052 whole entry): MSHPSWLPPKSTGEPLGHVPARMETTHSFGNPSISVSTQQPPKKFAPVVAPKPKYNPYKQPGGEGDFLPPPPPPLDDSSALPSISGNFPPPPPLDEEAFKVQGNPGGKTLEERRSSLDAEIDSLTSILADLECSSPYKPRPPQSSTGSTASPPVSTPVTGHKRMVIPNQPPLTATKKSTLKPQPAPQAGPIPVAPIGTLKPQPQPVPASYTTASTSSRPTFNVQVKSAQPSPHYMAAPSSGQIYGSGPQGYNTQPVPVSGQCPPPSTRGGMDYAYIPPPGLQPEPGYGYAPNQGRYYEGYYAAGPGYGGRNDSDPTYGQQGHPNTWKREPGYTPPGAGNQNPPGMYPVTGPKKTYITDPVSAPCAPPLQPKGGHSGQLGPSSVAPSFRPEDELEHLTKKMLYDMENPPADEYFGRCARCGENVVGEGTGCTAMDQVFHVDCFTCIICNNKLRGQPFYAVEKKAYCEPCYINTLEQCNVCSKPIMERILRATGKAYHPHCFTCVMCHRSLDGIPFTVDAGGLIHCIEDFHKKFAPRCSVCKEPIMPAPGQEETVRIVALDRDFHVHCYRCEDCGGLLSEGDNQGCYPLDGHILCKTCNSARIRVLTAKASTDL
Sequence of UniProt Q9H1Y0 (Q9H1Y0 whole entry): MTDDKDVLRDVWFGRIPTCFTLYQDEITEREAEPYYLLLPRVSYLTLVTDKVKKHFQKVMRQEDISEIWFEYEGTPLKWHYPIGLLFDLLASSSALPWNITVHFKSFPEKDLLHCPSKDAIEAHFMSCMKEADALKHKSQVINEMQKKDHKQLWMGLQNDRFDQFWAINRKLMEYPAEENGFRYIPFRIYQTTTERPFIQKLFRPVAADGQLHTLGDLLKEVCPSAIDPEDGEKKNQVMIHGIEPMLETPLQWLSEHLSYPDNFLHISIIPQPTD
Sequence of UniProt P48723 (P48723 whole entry): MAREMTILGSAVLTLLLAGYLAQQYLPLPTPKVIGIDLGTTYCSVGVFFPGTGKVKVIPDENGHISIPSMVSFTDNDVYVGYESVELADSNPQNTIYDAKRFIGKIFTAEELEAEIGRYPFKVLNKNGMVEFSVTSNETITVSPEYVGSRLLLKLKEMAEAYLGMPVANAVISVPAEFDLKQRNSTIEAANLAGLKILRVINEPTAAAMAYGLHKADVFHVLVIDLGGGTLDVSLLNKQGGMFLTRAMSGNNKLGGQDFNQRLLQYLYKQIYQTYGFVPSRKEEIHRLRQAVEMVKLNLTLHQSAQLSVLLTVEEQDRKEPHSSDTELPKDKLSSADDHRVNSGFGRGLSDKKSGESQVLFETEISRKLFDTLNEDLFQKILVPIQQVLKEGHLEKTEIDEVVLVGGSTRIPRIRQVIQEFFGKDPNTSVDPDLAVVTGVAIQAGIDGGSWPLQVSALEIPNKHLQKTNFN
Sequence of UniProt Q9NVQ4 (Q9NVQ4 whole entry): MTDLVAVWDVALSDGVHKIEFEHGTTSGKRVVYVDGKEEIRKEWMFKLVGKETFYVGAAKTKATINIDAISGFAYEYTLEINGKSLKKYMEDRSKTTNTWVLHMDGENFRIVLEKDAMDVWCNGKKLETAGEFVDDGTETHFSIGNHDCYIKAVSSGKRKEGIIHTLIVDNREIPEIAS
Sequence of UniProt P55011 (P55011 whole entry): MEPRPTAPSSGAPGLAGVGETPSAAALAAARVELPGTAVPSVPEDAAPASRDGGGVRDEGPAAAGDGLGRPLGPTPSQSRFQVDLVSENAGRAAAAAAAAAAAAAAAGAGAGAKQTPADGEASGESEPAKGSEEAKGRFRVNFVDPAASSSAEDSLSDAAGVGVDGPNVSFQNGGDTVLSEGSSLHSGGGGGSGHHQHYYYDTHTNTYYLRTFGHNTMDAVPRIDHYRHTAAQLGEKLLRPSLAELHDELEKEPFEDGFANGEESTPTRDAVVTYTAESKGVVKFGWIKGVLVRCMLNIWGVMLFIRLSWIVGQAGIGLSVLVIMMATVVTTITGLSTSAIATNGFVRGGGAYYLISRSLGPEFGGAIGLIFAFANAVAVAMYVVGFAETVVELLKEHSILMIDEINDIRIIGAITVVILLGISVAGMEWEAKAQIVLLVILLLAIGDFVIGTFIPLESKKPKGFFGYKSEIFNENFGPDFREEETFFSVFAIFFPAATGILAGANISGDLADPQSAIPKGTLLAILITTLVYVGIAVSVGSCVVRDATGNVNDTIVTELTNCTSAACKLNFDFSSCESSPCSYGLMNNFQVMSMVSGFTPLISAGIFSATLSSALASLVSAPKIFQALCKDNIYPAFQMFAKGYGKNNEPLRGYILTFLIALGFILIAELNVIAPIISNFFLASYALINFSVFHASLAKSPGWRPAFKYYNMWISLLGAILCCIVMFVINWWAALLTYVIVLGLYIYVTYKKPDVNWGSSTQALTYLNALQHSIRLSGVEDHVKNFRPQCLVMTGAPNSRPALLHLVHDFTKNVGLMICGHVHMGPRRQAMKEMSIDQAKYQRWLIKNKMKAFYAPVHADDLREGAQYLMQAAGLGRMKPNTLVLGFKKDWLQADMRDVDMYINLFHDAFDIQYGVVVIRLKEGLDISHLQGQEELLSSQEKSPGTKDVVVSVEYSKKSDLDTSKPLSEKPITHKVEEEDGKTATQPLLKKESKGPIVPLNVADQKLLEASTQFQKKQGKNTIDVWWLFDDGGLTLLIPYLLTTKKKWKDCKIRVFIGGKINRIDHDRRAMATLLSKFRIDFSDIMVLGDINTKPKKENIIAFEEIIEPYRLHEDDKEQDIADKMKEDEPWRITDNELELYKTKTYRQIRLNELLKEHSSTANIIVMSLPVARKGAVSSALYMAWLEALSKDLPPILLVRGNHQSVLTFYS
Sequence of UniProt P60660 (P60660 whole entry): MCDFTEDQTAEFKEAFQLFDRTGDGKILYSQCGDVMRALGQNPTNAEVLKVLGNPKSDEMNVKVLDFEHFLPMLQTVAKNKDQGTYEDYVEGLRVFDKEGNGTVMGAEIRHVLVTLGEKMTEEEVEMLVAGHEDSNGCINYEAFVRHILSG

Row | Target | thermal stability z-score (lipoamide; [1]) | thermal stability z-score (lipoamide; arsenate co-treatment: none) | thermal stability z-score (potassium arsenate)
1 | PARP9 (UniProt Q8IXQ6) | -0.239 | -0.1 | -0.0858
2 | GBE1 (UniProt Q04446) | -0.395 | 0.344 | -0.956
3 | FAM83G (UniProt A6ND36) | -0.123 | 0.00979 | 0.138
4 | CDC42 (UniProt P60953) | 0.932 | 0.454 | 0.0976
5 | KIAA0196 (UniProt Q12768) | -0.101 | 0.0446 | 0.0921
6 | PARP2 (UniProt Q9UGN5) | 0.0296 | -0.0685 | -0.0979
7 | BRAT1 (UniProt Q6PJG6) | -0.267 | -0.15 | 0.562
8 | SCRN2 (UniProt Q96FV2) | 0.553 | -0.0583 | -0.185
9 | OCIAD2 (UniProt Q56VL3) | 0.194 | 0.205 | 0.549
10 | MZT2B (UniProt Q6NZ67) | 0.0548 | 0.181 | 0.0663
11 | CARNMT1 (UniProt Q8N4J0) | -0.0735 | -0.179 | 0.59
12 | GCFC2 (UniProt P16383) | 0.317 | 0.441 | -0.00138
13 | SOD1 (UniProt P00441) | -0.57 | -0.258 | -0.236
14 | SLC12A2 (UniProt P55011) | -0.435 | -0.195 | -0.72
15 | CCDC167 (UniProt Q9P0B6) | -0.711 | -1.16 | 0.0429
16 | CSTF3 (UniProt Q12996) | 0.159 | 0.0381 | -0.661
17 | SRRM1 (UniProt Q8IYB3) | 0.79 | 0.714 | -2.14
18 | ATG5 (UniProt Q9H1Y0) | -0.255 | -0.342 | -0.959

Row | Target | thermal stability z-score (lipoamide; [1]) | thermal stability z-score (lipoamide; arsenate co-treatment: none) | thermal stability z-score (potassium arsenate)
19 | ZADH2 (UniProt Q8N4Q0) | 0.265 | 0.233 | 0.319
20 | MPP1 (UniProt Q00013) | -0.0663 | -0.0569 | -0.163
21 | SRP68 (UniProt Q9UHB9) | -0.606 | -0.27 | 0.344
22 | ADRBK1 (UniProt P25098) | 0.556 | 0.421 | 0.052
23 | MLST8 (UniProt Q9BVC4) | -0.537 | 0.0244 | 0.14
24 | MYL6 (UniProt P60660) | 0.576 | 0.451 | -0.312
25 | NT5C2 (UniProt P49902) | 0.892 | -0.608 | -0.0391
26 | CANT1 (UniProt Q8WVQ1) | 0.0524 | 0.482 | -0.0872
27 | SAC3D1 (UniProt A6NKF1) | -1.55 | -1.63 | -1.27
28 | ZNF24 (UniProt P17028) | 0.0764 | -0.217 | -0.114
29 | DDX39A (UniProt O00148) | -0.214 | 0.12 | 0.441
30 | MICALL1 (UniProt Q8N3F8) | -0.217 | 0.212 | -0.602
31 | LPP (UniProt Q93052) | -0.407 | -0.444 | -5.37
32 | NIFK (UniProt Q9BYG3) | 1.5 | 0.467 | -1.78
33 | FAIM (UniProt Q9NVQ4) | 1.03 | 0.411 | 0.336
34 | HSPA13 (UniProt P48723) | -2.72 | -2.35 | -0.112
35 | F11R (UniProt Q9Y624) | 0.865 | 0.653 | 0.151
